From patent publication US20240058350A1, “Methods of Treatment” (Arena Pharmaceuticals, Inc., priority 2020, published 2024)

Columns and labels:
human 5-HT2A = human 5-HT2A (Homo sapiens, UniProt P28223); test: affinity for human 5-HT2A; assay type: binding
Excerpt: (§1) M1 refers to N-(4-(2-(2-hydroxyethylamino)ethoxy)-3-(1-methyl-1H-pyrazol-5-yl)phenyl)-3-methoxybenzamide. M2 refers to N-(4-(2-aminoethoxy)-3-(1-methyl-1H-pyrazol-5-yl)phenyl)-3-methoxybenzamide. Compound 1, or a pharmaceutically acceptable salt, hydrate, or solvate thereof, inhibits serotonin-mediated vasoconstriction and inhibits serotonin-mediated amplification of platelet aggregation.

5-HT2B receptors = 5-HT2B receptors (Homo sapiens, UniProt P41595); test: affinity for 5-HT2B receptors; assay type: binding
Excerpt: as §1

5-HT2C receptors = molecular target: T1, 5-HT2C receptors (Homo sapiens, UniProt P28335); test: affinity for 5-HT2C receptors; assay type: binding
T1 sequence (P28335 33-458): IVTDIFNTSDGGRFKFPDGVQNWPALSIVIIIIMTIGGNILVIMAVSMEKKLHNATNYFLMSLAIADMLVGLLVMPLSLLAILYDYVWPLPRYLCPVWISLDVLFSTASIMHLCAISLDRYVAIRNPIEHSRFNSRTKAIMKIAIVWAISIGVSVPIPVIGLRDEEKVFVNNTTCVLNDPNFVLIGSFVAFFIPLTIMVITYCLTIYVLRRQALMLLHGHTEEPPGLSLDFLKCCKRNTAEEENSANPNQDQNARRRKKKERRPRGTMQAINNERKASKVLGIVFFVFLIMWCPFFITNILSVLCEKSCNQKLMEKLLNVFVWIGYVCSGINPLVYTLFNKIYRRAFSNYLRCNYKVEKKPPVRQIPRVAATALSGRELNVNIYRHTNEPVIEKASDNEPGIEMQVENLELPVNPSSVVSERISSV
Excerpt: as §1

[1] = tested on: serotonin-mediated vasoconstriction; test: serotonin-mediated vasoconstriction
Excerpt: as §1

[2] = tested on: serotonin-mediated amplification of platelet aggregation; test: serotonin-mediated amplification of platelet aggregation; assay type: cell-based
Excerpt: as §1

[3] = Clinical Trial 1: phase 1 single oral dose escalation, PK; assay type: in vivo, human; details: healthy subjects; for half-life compared with the parent compound: single oral dose of Compound 1 HCl
Method: (§2) A phase 1, randomized, double-blind, placebo-controlled, single-dose escalation study was conducted to assess the tolerability, PK, and PD of the HCl salt of Compound 1 at doses of 1 to 320 mg (adjusted free-base concentration) administered orally as a single dose to a total of 91 healthy subjects.

[4] = tested on: 5-HT-mediated amplification of platelet aggregation; test: Clinical Trial 1: PD, platelet aggregation with ADP with and without 5-HT; assay type: in vivo, human; details: single oral doses above 1 mg, healthy subjects
Method: as §2
(§3) PD assessment consisted of measuring pre- and post-dose platelet aggregation using an in vitro assay with ADP with and without 5-HT. The degree of thrombin receptor activating peptide (TRAP)-induced platelet aggregation inhibition between groups was similar. However, Compound 1 inhibited 5-HT-mediated amplification of platelet aggregation at doses above 1 mg.

[5] = tested on: thrombin receptor activating peptide (TRAP)-induced platelet aggregation; test: Clinical Trial 1: PD, TRAP-induced platelet aggregation; assay type: in vivo, human; details: single oral dose versus placebo, healthy subjects
Method: as §2, §3

[6] = Clinical Trial 2: phase 1 multiple ascending oral dose TID for 7 days, PK; assay type: in vivo, human; details: for accumulation ratio as measured by AUCtau: 60 and 80 mg Compound 1 oral TID, after 7 days; for metabolite exposures with increasing Compound 1 doses / metabolite to parent ratios with increasing Compound 1 doses: oral TID for 7 days
Method: A phase 1, randomized, double-blind, placebo-controlled, multiple-ascending dose-escalation study was conducted to assess the safety, tolerability, PD, and steady state PK of the HCl salt of Compound 1 from 5 to 80 mg (adjusted free-base concentration) administered orally TID for 7 days in a total of 50 healthy subjects.

[7] = Clinical Trial 3: phase 1 single ascending IV dose, PK; assay type: in vivo, human
Method: (§4) A phase 1, randomized, blinded, sponsor-open, placebo-controlled, single ascending dose (SAD) study was conducted to assess the safety, tolerability, PK, and PD of single IV doses of Compound 1 and two active metabolites (M1 and M2) in healthy adult subjects. Five dose cohorts (each cohort composed of six Compound 1 subjects and two placebo subjects) were evaluated.
(§5) Subjects received a single dose of Compound 1 or placebo. Each cohort included a sentinel group of two subjects (one active and one placebo) dosed at least 24 hours before the remaining six subjects (five active and one placebo). The remaining subjects were dosed following review of all available safety and tolerability data from the sentinel subjects. Safety, tolerability, and PK data were reviewed after the completion of each dose cohort and prior to escalation to the next dose cohort. PD data were reviewed prior to dosing subsequent cohorts. Selection of dose for subsequent cohorts was based on the data from previous cohort(s). Following administration of Compound 1 or placebo, subjects were confined for 72 hours to monitor safety and to collect PK/PD samples. Cardiodynamic electrocardiogram (ECG) sampling were collected pre-dose and through 24 hours post-dose in each cohort. The clinic contacted subjects on Day 11 (1 day) to determine if any adverse event (AE) occurred since discharge.
(§6) IV doses of placebo […], 1 mg Compound 1 (n=6), 5 mg Compound 1 (n=6), 10 mg Compound 1 (n=5), 20 mg Compound 1 (n=6), 30 mg Compound 1 (n=6), or 40 mg Compound 1 (n=6) were administered. The doses of 1 mg, 5 mg, 10 mg, and 20 mg of Compound 1 were administered by slow bolus infusion over a period of two minutes, while the doses of 30 mg and 40 mg of Compound 1 were administered over a period of five minutes. The PD effects of the single doses were examined immediately after dosing and 4 hours after dosing.

[8] = tested on: 5-HT-mediated amplification of platelet aggregation; test: Clinical Trial 3: PD, 5-HT-mediated amplification of platelet aggregation; assay type: in vivo, human; details: single IV doses of 20 mg and greater
Method: as §4
as §5, with “discharge. […]” for “discharge.”

[9] = Clinical Trial 3: safety and tolerability of single IV doses; assay type: in vivo, human
Method: as §4, §5, §6

[10] = all doses, Day 1 versus Day 7, oral TID for 7 days

5-HT2B receptors, sequence (P41595 whole entry): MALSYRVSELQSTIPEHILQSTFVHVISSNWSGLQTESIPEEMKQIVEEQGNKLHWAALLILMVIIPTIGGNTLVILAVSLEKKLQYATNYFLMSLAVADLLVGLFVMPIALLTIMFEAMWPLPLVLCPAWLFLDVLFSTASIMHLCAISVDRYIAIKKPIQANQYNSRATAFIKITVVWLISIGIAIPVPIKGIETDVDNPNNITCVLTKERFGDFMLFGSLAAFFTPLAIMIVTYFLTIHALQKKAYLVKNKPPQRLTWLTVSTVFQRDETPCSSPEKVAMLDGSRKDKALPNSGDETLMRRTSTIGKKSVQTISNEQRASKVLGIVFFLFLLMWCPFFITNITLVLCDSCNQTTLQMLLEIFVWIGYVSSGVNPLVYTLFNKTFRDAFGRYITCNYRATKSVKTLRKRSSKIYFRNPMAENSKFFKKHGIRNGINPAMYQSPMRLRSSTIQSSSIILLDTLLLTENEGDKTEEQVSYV
human 5-HT2A, sequence (P28223 whole entry): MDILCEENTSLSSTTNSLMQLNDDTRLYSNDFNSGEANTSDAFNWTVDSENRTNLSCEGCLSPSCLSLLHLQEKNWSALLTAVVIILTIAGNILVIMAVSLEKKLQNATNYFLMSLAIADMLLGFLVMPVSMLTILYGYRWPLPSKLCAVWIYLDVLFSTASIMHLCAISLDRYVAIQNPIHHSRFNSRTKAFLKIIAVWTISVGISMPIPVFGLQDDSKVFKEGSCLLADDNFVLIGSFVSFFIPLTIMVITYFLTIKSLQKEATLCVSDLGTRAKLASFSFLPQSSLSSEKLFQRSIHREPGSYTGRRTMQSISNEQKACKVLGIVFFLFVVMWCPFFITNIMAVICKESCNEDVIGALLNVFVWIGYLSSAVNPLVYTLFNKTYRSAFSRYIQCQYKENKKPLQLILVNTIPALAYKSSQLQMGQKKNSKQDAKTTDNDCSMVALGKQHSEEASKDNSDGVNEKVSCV

COc1cccc(C(=O)Nc2ccc(OCCN3CCOCC3)c(-c3ccnn3C)c2)c1 [Compound 1, 3-methoxy-N-[3-(2-methylpyrazol-3-yl)-4-(2-morpholin-4-ylethoxy)phenyl]benzamide]
affinity for human 5-HT2A (human 5-HT2A): high affinity | affinity for 5-HT2B receptors (5-HT2B receptors): no appreciable affinity | affinity for 5-HT2C receptors (5-HT2C receptors): no appreciable affinity | serotonin-mediated vasoconstriction [1]: inhibits | serotonin-mediated amplification of platelet aggregation [2]: inhibits | absorption ([3]; single oral dose 1 to 320 mg): rapidly absorbed at all doses | half-life as the dose was escalated ([3]; single oral dose 1 to 320 mg): half-life increased | plasma exposure measures versus dose ([3]; single oral dose 1 to 320 mg): increased in a greater than dose proportional manner | 5-HT-mediated amplification of platelet aggregation [4]: inhibited | degree of TRAP-induced platelet aggregation inhibition between groups [5]: similar | AUC accumulation ratio [6, 10]: less than 2 | Cmax accumulation ratio [6, 10]: less than 2 | absorption ([6]; oral 5 to 80 mg TID for 7 days, healthy subjects): rapidly absorbed at all doses | exposure as measured by AUC versus dose ([6]; oral TID, 5 and 10 mg): dose proportional | exposure as measured by AUC versus dose ([6]; oral TID, 40, 60, and 80 mg, Day 1 and Day 7): greater than dose proportional | Cmax ([7]; human, plasma, 40 mg single IV dose, healthy adult subjects, read-out: mean observed Cmax): 1840 ng/mL | half-life ([7]; human, plasma, single IV doses 1 to 40 mg, healthy adult subjects, read-out: mean terminal elimination half-life): 60 to 120 min | dose dependence of mean terminal elimination half-life ([7]; single IV doses 1 to 40 mg): dose-dependent | inhibition of 5-HT-mediated amplification of platelet aggregation [8]: Near-maximal inhibition | epistaxis, subjects affected ([9]; Compound 1 group, single IV dose): one subject | bleeding-related TEAEs, Bleeding Academic Research Consortium (BARC) Type ([9]; single IV doses): ≤ 1 | discontinuation of treatment ([9]; single IV doses 1 to 40 mg): No subjects discontinued treatment

COc1cccc(C(=O)Nc2ccc(OCCNCCO)c(-c3ccnn3C)c2)c1 [Compound M1, N-(4-(2-(2-hydroxyethylamino)ethoxy)-3-(1-methyl-1H-pyrazol-5-yl)phenyl)-3-methoxybenzamide]
affinity for human 5-HT2A (human 5-HT2A): high affinity | affinity for 5-HT2B receptors (5-HT2B receptors): no appreciable affinity | affinity for 5-HT2C receptors (5-HT2C receptors): no appreciable affinity | metabolite-to-parent ratios as the dose was escalated ([3]; single oral dose 1 to 320 mg): decreased | half-life compared with the parent compound [3]: longer half-lives than the parent compound | accumulation ratio as measured by AUCtau [6]: approximately 2 | metabolite exposures with increasing Compound 1 doses [6]: increased | metabolite to parent ratios with increasing Compound 1 doses [6]: decreased

COc1cccc(C(=O)Nc2ccc(OCCN)c(-c3ccnn3C)c2)c1 [Compound M2, N-(4-(2-aminoethoxy)-3-(1-methyl-1H-pyrazol-5-yl)phenyl)-3-methoxybenzamide]
affinity for human 5-HT2A (human 5-HT2A): high affinity | affinity for 5-HT2B receptors (5-HT2B receptors): no appreciable affinity | affinity for 5-HT2C receptors (5-HT2C receptors): no appreciable affinity | metabolite-to-parent ratios as the dose was escalated ([3]; single oral dose 1 to 320 mg): decreased | half-life compared with the parent compound [3]: longer half-lives than the parent compound | accumulation ratio as measured by AUCtau [6]: approximately 2 | metabolite exposures with increasing Compound 1 doses [6]: increased | metabolite to parent ratios with increasing Compound 1 doses [6]: decreased
